Measured values: patent US20190105260A1, “COMPOSITIONS AND METHODS TO PROMOTE WOUND HEALING” (The Regents of the University of California, priority 2016, published 2019)

How the values were obtained:
[1] = test system: bone marrow-derived macrophages (BMDMs), M2 polarization; assay: In vitro macrophage polarization (RT-PCR, flow cytometry); format: cell-based, mouse; conditions: for effect on fluoxetine-enhanced M2 polarization (CD206+ cells, flow cytometry): added to fluoxetine, 1 μM Ketanserin, 100 nM NAN-190, 24 hours
Method: Bone marrow described macrophages from wild-type C57/B6J mice were harvested and cultured under polarizing conditions towards M0 (no polarization; normal culture medium), M1 (using LPS and IFNγ) or M2 (using IL-4 and IL-13). […] M2 activation status was assessed using RT-PCR (normalized to HSP90) for CD206, Ym-1 and Arg-1. M1 activation status was assessed using TNFα (A, B). C: At day 7 of macrophage maturation, adherent bone marrow derived monocytes in culture were identified with macrophage markers (CD11b and F4/80) using flow cytometry. After 24 hours, CD206 expression was identified in treated group (C). Results were then quantified and reported (D). Data presented as average±SEM. ** p<0.01.
Wild type C57BL/6 male and female mice were used. Bone marrow-derived (BMD) cells were isolated from mouse femurs and tibias. ACK solution (Thermo Fisher catalog 50-983-220) was used for 5 minutes at 37° C. to lyse red blood cells. BMD macrophages (BMDMs) were matured with (20 ng/mL) M-CSF (R&D) for 7 days. On day 7, BMDM phenotype was confirmed with flow cytometry by CD11b and F4/80 markers (Biolegend). Following maturation, BMDMs were either polarized towards M1 lineage with 10 ng/ml LPS (Sigma Aldrich) and 100 ng/ml IFN-g (R&D) or M2 lineage with 20 ng/ml IL-4 (PeproTech) and IL-13 (R&D) in cRPMI (1×RPMI (Cellgro), 10% FBS, 1× sodium pyruvate (GIBCO), 1× penicillin/streptomycin (GIBCO) at 37° C. for 24 hours. Non-polarized BMDMs and M1-polarized BMDMs were used as experimental controls for polarization procedure. M2-polarized BMDMs were co-treated with either PBS or FLX and/or 100 nM NAN-190 or 1 μM Ketanserin. Cells were either collected after 4 hours by scraping and stored in buffer RLT (Qiagen) at −80° C. or were read with flow cytometry after 24 hours and data were appropriately compensated and analyzed by FlowJo.
RT-PCR was performed using PowerUp SYBR Green Master Mix (Thermo/Applied Biosystems). Data was analyzed using the ΔΔCt method and normalized using geometric mean of the housekeeping genes (GAPDH, Hsp90, 18S rRNA). Fold change is shown relative to control groups.

BMSC [2] = assay: BMSC migration assay; format: cell-based; conditions: 10 uM 5HT vs untreated BMSC; BMSC pooled from 3 donors
BMSC [3] = assay: BMSC proliferation in vitro; format: cell-based; conditions: 10 uM 5HT vs untreated BMSC; BMSC pooled from 3 donors
[4] = test system: HaCaT human keratinocyte cell line; assay: Single cell migration assay; format: cell-based; conditions: HaCaT cells
Description: (§1) FIGS. 2A-C illustrate that serotonin (5-HT) increases keratinocyte migratory speed and re-epithelialization in a scratch wound ex vivo model, likely through the ERK-STAT3-NFkB pathway.

[5] = test system: Neonatal Human Keratinocytes (NHKs); assay: Scratch wound assay; format: cell-based
Method: as §1
Neonatal Human Keratinocytes (NHKs) were either non-treated (Control) or treated with 5-HT (1 μM) and FLX (0.01 μM, 0.1 μM, 1 μM) and/or 5HTR1A blocker (100 nM NAN190) and/or 5HTR2A antagonist (1 μM Ketanserin or KET). NHKs from at least 3 different donors were plated at fully confluent density and treated with Mitomycin to prevent proliferation. P-200 tips were used to induce a scratch wound in the middle of each well and time-lapse images were recorded every 30 minutes for 6 hours and % healed were calculated as previously described. Data represented as Mean±SEM. Student t-tests were used for statistical analysis. *, p<0.05; **, p<0.01; ***, p<0.001.
NHKs were isolated and cultured from human foreskin as previously reported. […]
NHKs from 3 different donors were plated on collagen-coated 12-well plates at fully confluent density and treated with Mitomycin C to prevent proliferation. P-200 tips were used to induce a scratch wound in the middle of each well and time-lapse images were recorded every 30 minutes for 6 hours and % healed were calculated as following: % Healed=([(SA)]_(t=0)−[(SA)]_(t=6))/[(SA)]_(t=0) which SA represents surface area of the scratch wound gap at 0-hour (t=0) or 6-hour time point. […]

[6] = test system: phosphorylated ERK in keratinocytes; assay: Multiplex assay, phosphorylated ERK; format: cell-based, human; conditions: 10 μM 5-HT for 6 hours, NHKs
Method: as §1
(§2) NHKs from 3 different donors were cultured in 100 mm dishes until 80% confluent and treated with 10 μM 5-HT for 6 hours. Protein lysates were collected and quantified with Bradford assays before proceeding according to manufacturer's protocol (Millipore Multiplex Assay (MILLIPLEX® MAP 48-680MAG). Results were normalized to total protein levels quantified separately by Bradford protein assays.

[7] = test system: phosphorylated STAT3 in keratinocytes; assay: Multiplex assay, phosphorylated STAT3; format: cell-based, human; conditions: 10 μM 5-HT for 6 hours, NHKs
Method: as §1, §2

NF-kB in keratinocytes = assay: Multiplex assay, NF-kB; format: cell-based, human; conditions: 10 μM 5-HT for 6 hours, NHKs
Method: as §1, §2

[8] = test system: Db/Db female mice, diabetic model of impaired wound healing; assay: In vivo splinted full-thickness excisional wound model, re-epithelialization analysis; parameters: species or system mouse; conditions: for re-epithelialization vs vehicle control: daily topical 0.2% fluoxetine or 2% serotonin in 5% polyethylene glycol, day 10; for re-epithelialization compared to PEG vehicle control: daily topical 0.2% fluoxetine or 0.01% timolol, day 12
Method: Panel B: Histomorphometric analysis of wounds. Representative histology sections for each group were chosen. Following euthanasia of animals, wounds were excised, biopsied and bisected. Wound tissue was fixed in paraformaldehyde for 12-16 hours and then paraffin embedded. Serial 5 μm sections were obtained from the center of the wound and the section with the largest wound bed (as defined by distance between hair follicles) was stained with hemotoxylin and eosin. Images were taken using 10× objective on a Keyance microscope. Panels C-D: Re-epithelialization was determined on sections created as in panel B. Image J analysis software was utilized to divide the re-epithelialized tissue (distance from hair follicle to remaining wound) by the entire original wound surface (as defined as distance between hair follicles). Panel D provides the distribution of data depicted in Panel C. P values were derived using a 2-tailed t-test.
13 week-old Db/Db female mice underwent full-thickness excisional biopsies with 8 mm punch biopsies. Wounds were splinted to prevent contraction. At day 12, animals were sacrificed and wounds were harvested to assess re-epithelialization. Representative histology sections for each group were chosen. Following euthanasia of animals, wounds were excised, biopsied and bisected. Wound tissue was fixed in paraformaldehyde for 12-16 hours and then paraffin embedded. Serial […] sections were obtained from the center of the wound and the section with the largest wound bed (as defined by distance between subcutaneous fat tissue) was stained with hemotoxylin and eosin. Images were taken using 10× objective on a Keyance microscope. (A) Re-epithelialization was determined on sections created. Image J analysis software was utilized to divide the re-epithelialized tissue by the entire original wound surface. (B) Percent of wounds at different stages of re-epithelialization was quantified. Data represented as Mean±SEM. P values were derived using a 2-tailed t-test. N=5/group.
13 week-old Db/Db female mice underwent full-thickness excisional wounding with 8 mm punch biopsy tool. All wounds were splinted to prevent contraction. […] At day 11, animals were sacrificed and wounds were harvested to assess re-epithelialization. Representative histology sections for each group were chosen. Following euthanasia of animals, wounds were excised, biopsied and bisected. Wound tissue was fixed in paraformaldehyde for 12-16 hours and then paraffin embedded. Serial […] sections were obtained from the center of the wound and the section with the largest wound bed (as defined by distance between subcutaneous fat tissue) was stained with hemotoxylin and eosin. Images were taken using 10× objective on a Keyance microscope. Re-epithelialization was determined on sections created. Image J analysis software was utilized to divide the re-epithelialized tissue by the entire original wound surface. Data represented as Mean±SEM. N=5/group.
Diabetic status (blood glucose >300 mg/dl) was confirmed in female Db/Db mice at age 11 weeks. At age 13 weeks, mice underwent hair removal and synchronization of follicle cycling through depilation and shaving. Synchronization was confirmed based on lack of skin pigmentation in included mice. 1 day after synchronization, 13-week-old Db/Db female mice underwent full-thickness excisional wounding using a splinted model as described. Briefly, 8 mm punch biopsies were used to make full-thickness excisional wounds. […]

[9] = test system: wound beds of Db/Db female mice; assay: Immunohistochemistry of wound beds (Gr-1, F4/80, CD31); format: in vivo, mouse; conditions: topical treatment, day 10
Method: 13 week-old Db/Db female mice underwent full-thickness excisional biopsies with 8 mm punch biopsies. Wounds were splinted to prevent contraction. At day 10, animals were sacrificed and wounds were harvested to assess re-epithelialization. Representative histology sections for each group were chosen. Following euthanasia of animals, wounds were excised, biopsied and bisected. Wound tissue was fixed in paraformaldehyde for 12-16 hours and then paraffin embedded. Serial […] sections were obtained from the center of the wound and the section with the largest wound bed (as defined by distance between subcutaneous fat tissue—indicated by yellow arrows in figure). Images were taken using 10× objective on a Keyance microscope. Sections were stained with antibody to Gr-1 (A), CD31 (B) or F4/80 (C) to assess neutrophil, endothelial cell or macrophage numbers, respectively, in the wound beds. Wound bed area was outlined in Spectrum software (demarcated by yellow arrows in this figure), which then calculated the number of positive cells. Data is presented as positive cells/mm^2. P values were derived using a 1-tailed t-test. *, p<0.05; **, p<0.01. N=5/group.
Following euthanasia, wound tissue was harvested and processed as described above. Antibodies: F4/80 (Serotec, now BioRad MCA497A488, clone CI:A3-1, 1:100 dilution); GR-1 (Biolegend, catalog number 108402, clone RB6-8C5, 1:200 dilution); CD31 (Santa Cruz, catalog number sc1506, clone M20, 1:1800 dilution). Wound beds were analyzed in Spectrum software (UC Davis). Wound beds were outlined based on subcutaneous fat presence and positive cells were calculated as #/mm^2 of wound bed.

[10] = test system: CFSE-labeled CD4+CD25- effector T cells stimulated with CD11c+ dendritic cells; assay: Mixed lymphocyte reaction; format: cell-based, mouse; conditions: 1 μM fluoxetine, 10 μM serotonin, 3,000 AMSC or 1,500 BMSC added to co-cultures
Method: Panel A: In a mixed lymphocyte reaction, 250,000 Carboxyfluorescein succinimidyl ester (CFSE)-labeled CD4+CD25-effector T cells were cultured with 100,000 CD11c+ dendritic cells as antigen. […] Proliferation was measured based on CFSE dilution. […] P values were derived using a 2-tailed t-test.
Mixed lymphocyte reactions were performed as described. Briefly, allogenic effector B6 CF SE-labeled T cells were incubated in a 96-well plate (250,000/well) with CD11c+ Bal/b APC (100,000/well) that were purified from bulk splenocytes on anti-CD11c-coupled Milteny microbeads. […] Proliferation was measured based on CFSE dilution.

[11] = Serotonin degradation in culture (ELISA); format: physicochemical; conditions: after 24 hours in culture, in both the presence and absence of BMSC
Description: Serotonin is rapidly degraded when exposed to in vitro in culture conditions.

[12] = cited from earlier work
[13] = 100 nM fluoxetine, after 4 hours of polarization

Q: For `O=C(c1ccc(F)cc1)C1CCN(CCn2c(=O)[nH]c3ccccc3c2=O)CC1` [Ketanserin], which “effect on fluoxetine-enhanced M2 polarization (CD206+ cells, flow cytometry)” value [1] is on record?
A: reversed

Q: Which results are given for `NCCc1c[nH]c2ccc(O)cc12` [serotonin]?
A: BMSC migratory speed (BMSC [2]): significantly increased; BMSC proliferation (BMSC [3]): significantly increased; keratinocyte migration (single cell migration) [4]: increases; migration of keratinocytes ([5]; primary keratinocytes from 3 donors, 6-hour time point, mitomycin-treated): enhance migration of keratinocytes in a dose-dependent manner; phosphorylation of ERK [6]: significantly increased; phosphorylation of STAT3 [7]: significantly increased; NF-kB protein (NF-kB in keratinocytes): increase; re-epithelialization vs vehicle control [8]: significantly improved; angiogenesis (CD31+ endothelial cells) in wound beds vs vehicle [9]: increasing; macrophage (F4/80+ cells) numbers in wound beds vs vehicle [9]: increasing; neutrophils (Gr-1+ cells) in wound beds vs vehicle [9]: significantly fewer; T cell proliferation (CFSE dilution) [10]: significantly inhibit; serotonin in culture lost [11]: Over 50%

Q: With `CC(C)(C)NC[C@H](O)COc1nsnc1N1CCOCC1` [timolol] as the molecule, how does the “re-epithelialization compared to PEG vehicle control” value [8] read?
A: increased

Q: Which “effect on fluoxetine-enhanced M2 polarization (CD206+ cells, flow cytometry)” value [1] does the source give for `COc1ccccc1N1CCN(CCCCN2C(=O)c3ccccc3C2=O)CC1` [NAN190] here?
A: reversed

Q: With `CC(C)(C)NCC(O)COc1cccc2c1CC(O)C(O)C2` (centres unmarked) [Nadolol] as the molecule, how does the lipid solubility [12] read?
A: low

Q: Which results are given for `CNCCC(Oc1ccc(C(F)(F)F)cc1)c1ccccc1` (centres unmarked) [fluoxetine]?
A: migratory speed of human keratinocytes ([5]; fluoxetine (0.01-1 μM) in the presence of serotonin (1 μM), 6 hours): significantly increased; re-epithelialization compared to PEG vehicle control [8]: increased; re-epithelialization vs vehicle control [8]: significantly improved; increase in re-epithelialization compared to INTEGRA alone ([8]; day 11, all wounds with INTEGRA matrix, 1 μM fluoxetine daily, 250,000 MSC): 17%; angiogenesis (CD31+ endothelial cells) in wound beds vs vehicle [9]: significantly increased; macrophage (F4/80+ cells) numbers in wound beds vs vehicle [9]: significantly increased; neutrophils (Gr-1+ cells) in wound beds vs vehicle [9]: significantly fewer; Arg-1 transcripts (RT-PCR) [1, 13]: significant increased; CD206 transcripts (RT-PCR) [1, 13]: significant increased; Ym-1 transcripts (RT-PCR) [1, 13]: significant increased; M2 polarization of naïve macrophages (CD206+ cells, flow cytometry) ([1]; after 24 hours of M2 polarization): enhanced; T cell proliferation (CFSE dilution) [10]: significantly inhibit
